Laboratory results reported in patent US12441746B2, “HCK inhibitors for the treatment of fibrosis and cancer” (Icahn School of Medicine at Mount Sinai, priority 2020, dated 2025).
Where two headings read alike, the source gives them in different places.

Tests used:
HCK kinase = biological target: T1, HCK kinase (Homo sapiens, UniProt P08631); assay: HCK activity inhibition, radioactive kinase assay (Reaction Biology Corp); type: biochemical
T1 construct: purchased Reaction Biology Corp
Description: HCK activity inhibition efficiency for the inhibitors. Inhibiting efficiency is performed in Reaction Biology with Corp P32 radioactive kinase assay, comparing compounds of the invention with dasatinib for HCK, Bcr-Abl and other binding kinases identified in the reference. Briefly, HCK kinase was delivered into the substrate solution and gently mixed, then compounds in DMSO were added into the kinase reaction mixture by Acoustic technology (Echo550; Nano liter range), and incubated for 20 minutes at room temperature. 33P-ATP was delivered into the reaction mixture to initiate the reaction. The kinase reaction was incubated for 2 hours at room temperature. Reactions were spotted onto P81 ion exchange paper, and detected kinase activity was measured by filter-binding method.

HK2 cells = assay: mRNA expression of fibrosis markers in HK2 cells; type: cell-based
[1] = test system: SMAD3 transcriptional activity in HEK293 cells; assay: SMAD3 transcriptional activity in HEK293 cells; type: cell-based
murine UUO model = assay: Murine unilateral ureteral obstruction (UUO) kidney fibrosis model; type: in vivo, Male C57BL/6 mice; settings: 25 mg/kg by gavage daily, 7-days post-UUO
Description: Inhibiting Hck activity in vivo with Example 2 attenuates kidney fibrosis in murine UUO model: Unilateral ureteral obstruction (UUO) was performed on Male C57BL/6 mice (˜10 weeks age). Mice were perfused 7-days post UUO. The inhibitory activity of the compounds of the invention as compared to controls was determined. The UUO mice were treated with Example 2 at 25 mg/kg or vehicle (n=5) by gavage daily started one day prior to the surgery to 7-days post-surgery. […] Compounds of the invention are promising HCK-specific inhibitors.
FIG. 1 depicts mRNA—levels of pro-fibrotic markers at 7-days post-UUO by RT-PCR (normalized to GAPDH), from whole cortices of control and UUO kidneys of Example 2 and PBS-fed animals. […] Values are mean±SEM. *P<0.05.

Src-family kinase (SFK) = assay: Inhibition of all Src-family kinase (SFK) activity; type: biochemical; settings: FIG. 3
Cytotoxicity = type: cell-based; settings: at 50 uM (data not shown)
[2] = compared with vehicle-treated mice

T1 sequence (P08631 whole entry): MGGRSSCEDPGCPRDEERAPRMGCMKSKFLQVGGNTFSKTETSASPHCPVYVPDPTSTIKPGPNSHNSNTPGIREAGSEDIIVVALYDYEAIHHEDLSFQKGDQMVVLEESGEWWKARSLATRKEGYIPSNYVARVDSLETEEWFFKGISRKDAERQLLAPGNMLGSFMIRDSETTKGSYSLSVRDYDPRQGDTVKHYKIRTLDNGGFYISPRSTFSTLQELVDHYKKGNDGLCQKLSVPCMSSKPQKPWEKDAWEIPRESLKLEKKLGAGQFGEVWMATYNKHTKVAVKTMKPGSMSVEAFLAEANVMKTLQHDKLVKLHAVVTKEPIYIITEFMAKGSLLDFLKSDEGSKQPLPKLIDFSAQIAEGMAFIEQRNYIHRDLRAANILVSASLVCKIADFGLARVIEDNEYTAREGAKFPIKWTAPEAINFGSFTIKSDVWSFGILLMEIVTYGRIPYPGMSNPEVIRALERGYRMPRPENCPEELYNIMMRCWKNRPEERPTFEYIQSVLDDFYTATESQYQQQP

Structure (SMILES): Clc1cc(Cl)c2c(c1)C=C(C1=NOB(c3ccccc3)N1)C(c1ccccc1)O2 (centres unmarked) [Example 2, 3-(6,8-dichloro-2-phenyl-2H-chromen-3-yl)-5-phenyl-4,5-dihydro-1,2,4,5-oxadiazaborole]
- IC50 (HCK kinase; HCK, read-out: IC50): < 20 µM
- IC50 (HCK kinase; radioactive kinase assay, 33P-ATP, 2 hours at room temperature, read-out: IC50 for HCK activity): ~12 µM
- mRNA expression of fibrosis markers (HK2 cells; FIG. 4): reduced
- mRNA expression of COL1A1 (HK2 cells; HK2 cells): reduced
- mRNA expression of FN1 (HK2 cells; HK2 cells): reduced
- mRNA expression of SNAIL (HK2 cells; HK2 cells): reduced
- SMAD3 transcriptional activity [1]: reduced
- renal fibrosis in the UUO kidneys (Masson and collagen I staining) (murine UUO model): reduced renal fibrosis
- RTEC injury in the UUO kidney (H&E staining) (murine UUO model; compared to vehicle-treated mice): reduced RTEC injury
- expression of Col1a1 in the UUO kidney (murine UUO model; [2]): significantly decreased
- expression of FSP-1 in the UUO kidney (murine UUO model; [2]): significantly decreased
- expression of Fibronectin in the UUO kidney (murine UUO model; [2]): significantly decreased
- selectivity among Src-family kinases (Src-family kinase (SFK)): selectivity to HCK inhibition
- cytotoxicity (Cytotoxicity): no cytotoxicity
